Reference: US20190249218A1, “Method, Medium and Kit for Detecting Multiple Aminoglycoside Resistance Including 16S rRNA Methylase Mediated Resistance in Gram-Negative Bacteria” (priority 2016, published 2019)

Assays:
Experiment in all cases: MIC by broth microdilution
E. coli = type: cell-based, Escherichia coli
Protocol: (§1) MICs of amikacin and gentamicin were determined using the broth microdilution method in cation-adjusted Mueller-Hinton broth, as recommended by the Clinical Laboratory Standard Institute (CLSI) guidelines (8). Amikacin and gentamicin sulfate (Fluorochem, Dertbyshire, UK) were tested over a range of dilutions from 0.25 to 256 μg/ml. A final inoculum of 5.10^5 CFU/ml of each strain was distributed in the 96 wells tray (Sarstedt, Ntimbrecht, Germany). All experiments were repeated in triplicate and E. coli ATCC 25922 was used as quality control. According to the CLSI breakpoints (9), Enterobacteriaceae isolates with gentamicin MICs≤4 and amikacin MICs≤16 mg/L were categorized as susceptible, while those with gentamicin MICs≥16 and amikacin MICs≥64 mg/L were categorized as resistant.
(§2) MICs of amikacin and gentamicin were determined as described above in Example 1.

K. pneumoniae = type: cell-based, Klebsiella pneumoniae
Protocol: as §1, §2

E. cloacae = type: cell-based, Enterobacter cloacae
Protocol: as §1, §2

P. mirabilis = type: cell-based, Proteus mirabilis
Protocol: as §1, §2

P. rettgeri = type: cell-based, Providencia rettgeri; conditions: AAC(2′)
Protocol: as §1, §2

S. marcescens = type: cell-based, Serratia marcescens; conditions: AAC(3)-I
Protocol: as §1, §2

P. aeruginosa = type: cell-based, Pseudomonas aeruginosa
Protocol: as §1, §2

[1] = isolate 92/31, E. coli, AAC(3)-IV
[2] = isolate 1488, E. coli, AAC(6′)-II
[3] = isolate 4000, E. coli, APH(3′)-I + AAC(3)-V
[4] = isolate FR136, E. coli ATCC 25922, AG susceptible
[5] = isolate R1436, E. coli, AG susceptible
[6] = isolate R1438, E. coli, AG susceptible
[7] = isolate R2278, E. coli ATCC 35218, AG susceptible
[8] = isolate R4100, E. coli TOP10, npmA
[9] = isolate RP4, E. coli, APH(3′)-Ib
[10] = isolate pFCT1163, E. coli, AAC(6′)-Ia
[11] = isolate pFCT4392, E. coli, AAC(3)-Ia
[12] = isolate 1800, K. pneumoniae, AAC(6′)-I + AAC(3)-I
[13] = isolate 13000, K. pneumoniae, APH(3′)-I + AAC(3)-V
[14] = isolate 22233, K. pneumoniae, AAC(3)-V
[15] = isolate N34, K. pneumoniae, rmtC
[16] = isolate R108, K. pneumoniae, armA
[17] = isolate R347, K. pneumoniae, AG susceptible
[18] = isolate R500, K. pneumoniae, armA
[19] = isolate R502, K. pneumoniae, rmtF
[20] = isolate R2160, K. pneumoniae, rmtG
[21] = isolate R2257, K. pneumoniae, armA
[22] = isolate S155, K. pneumoniae, AG susceptible
[23] = isolate 1110, E. cloacae, ANT(2″)
[24] = isolate HM, E. cloacae, AG susceptible
[25] = isolate R713, E. cloacae, AG susceptible
[26] = isolate R1433, E. cloacae, AG susceptible
[27] = isolate R2258, E. cloacae, armA
[28] = isolate R2260, P. mirabilis, AG susceptible

Gentamicin
S (gentamicin MICs≤4): Gentamicin Phenotype (E. coli; [4]) | Gentamicin Phenotype (E. coli; [5]) | Gentamicin Phenotype (E. coli; [6]) | Gentamicin Phenotype (E. coli; [7]) | Gentamicin Phenotype (E. coli; [9]) | Gentamicin Phenotype (E. coli; [10]) | Gentamicin Phenotype (K. pneumoniae; [17]) | Gentamicin Phenotype (K. pneumoniae; [22]) | Gentamicin Phenotype (E. cloacae; [24]) | Gentamicin Phenotype (E. cloacae; [25]) | Gentamicin Phenotype (E. cloacae; [26]) | Gentamicin Phenotype (P. mirabilis; [28]) | Gentamicin Phenotype (P. rettgeri; isolate 531, P. rettgeri)
128 µg/mL: MIC (K. pneumoniae; [13]) | MIC (K. pneumoniae; [14]) | MIC (K. pneumoniae; strain 13000, K. pneumoniae, APH(3′)-I + AAC(3)-V) | MIC (K. pneumoniae; strain 22233, K. pneumoniae, AAC(3)-V)
R (gentamicin MICs≥16): Gentamicin Phenotype (E. coli; isolate 62Carb, E. coli, rmtB) | Gentamicin Phenotype (E. coli; [1]) | Gentamicin Phenotype (E. coli; isolate 97, E. coli, AAC(3)-IV) | Gentamicin Phenotype (E. coli; isolate 390, E. coli, AAC(3)-IV) | Gentamicin Phenotype (E. coli; [2]) | Gentamicin Phenotype (E. coli; [3]) | Gentamicin Phenotype (E. coli; isolate 22089, E. coli, AAC(3)-I + AAC(3)-V) | Gentamicin Phenotype (E. coli; isolate 122971, E. coli, ANT(2″)) | Gentamicin Phenotype (E. coli; isolate E28, E. coli, rmtB) | Gentamicin Phenotype (E. coli; isolate R107, E. coli, rmtB) | Gentamicin Phenotype (E. coli; isolate R262, E. coli, rmtC) | Gentamicin Phenotype (E. coli; isolate R451, E. coli, rmtC) | Gentamicin Phenotype (E. coli; isolate R989, E. coli, armA) | Gentamicin Phenotype (E. coli; isolate R990, E. coli, rmtB) | Gentamicin Phenotype (E. coli; isolate R1012, E. coli, armA) | Gentamicin Phenotype (E. coli; [8]) | Gentamicin Phenotype (E. coli; [11]) | Gentamicin Phenotype (E. coli; isolate pWP701, E. coli, AAC(3)-IV) | Gentamicin Phenotype (K. pneumoniae; [12]) | Gentamicin Phenotype (K. pneumoniae; [13]) | Gentamicin Phenotype (K. pneumoniae; [14]) | Gentamicin Phenotype (K. pneumoniae; [15]) | Gentamicin Phenotype (K. pneumoniae; [16]) | Gentamicin Phenotype (K. pneumoniae; [18]) | Gentamicin Phenotype (K. pneumoniae; [19]) | Gentamicin Phenotype (K. pneumoniae; [20]) | Gentamicin Phenotype (K. pneumoniae; [21]) | Gentamicin Phenotype (E. cloacae; [23]) | Gentamicin Phenotype (E. cloacae; [27]) | Gentamicin Phenotype (S. marcescens; isolate 4290, S. marcescens)
0.5 µg/mL: MIC (E. coli; [4]) | MIC (K. pneumoniae; [17]) | MIC (K. pneumoniae; [22]) | MIC (K. pneumoniae; strain R347, K. pneumoniae, susceptible) | MIC (K. pneumoniae; strain S155, K. pneumoniae, susceptible) | MIC (E. cloacae; [25]) | MIC (E. cloacae; strain R713, E. cloacae, susceptible)
16 µg/mL: MIC (E. coli; [1]) | MIC (E. coli; [2]) | MIC (E. coli; strain 92/31, E. coli, AAC(3)-IV) | MIC (E. coli; strain 1488, E. coli, AAC(6′)-II) | MIC (K. pneumoniae; [12]) | MIC (K. pneumoniae; strain 1800, K. pneumoniae, AAC(6′)-I + AAC(3)-I)
64 µg/mL: MIC (E. coli; [3]) | MIC (E. coli; [8]) | MIC (E. coli; strain 4000, E. coli, APH(3′)-I + AAC(3)-V) | MIC (S. marcescens; isolate 4290, S. marcescens) | MIC (S. marcescens; strain 4290, S. marcescens)
258 µg/mL: MIC (E. coli; strain R4100, E. coli, npmA)
4 µg/mL: MIC (E. coli; [10]) | MIC (E. coli; strain pFCT1163, E. coli, AAC(6′)-Ia) | MIC (P. mirabilis; [28]) | MIC (P. mirabilis; strain R2260, P. mirabilis, susceptible) | MIC (P. rettgeri; isolate 531, P. rettgeri) | MIC (P. rettgeri; strain 531, P. rettgeri) | MIC (P. aeruginosa; strain 3655, P. aeruginosa, APH(3′)-I + ANT(2″)) | MIC (P. aeruginosa; strain 3658, P. aeruginosa, APH(3′)-I + ANT(4′)-II)
>256 µg/mL: MIC (K. pneumoniae; [15]) | MIC (K. pneumoniae; [16]) | MIC (K. pneumoniae; [18]) | MIC (K. pneumoniae; [19]) | MIC (K. pneumoniae; [20]) | MIC (K. pneumoniae; [21]) | MIC (K. pneumoniae; strain N34, K. pneumoniae, rmtC) | MIC (K. pneumoniae; strain R108, K. pneumoniae, armA) | MIC (K. pneumoniae; strain R500, K. pneumoniae, armA) | MIC (K. pneumoniae; strain R502, K. pneumoniae, rmtF) | MIC (K. pneumoniae; strain R2160, K. pneumoniae, rmtG) | MIC (K. pneumoniae; strain R2257, K. pneumoniae, armA) | MIC (E. cloacae; [27]) | MIC (E. cloacae; strain R2258, E. cloacae, armA) | MIC (P. mirabilis; strain R263, P. mirabilis, armA)
8 µg/mL: MIC (E. coli; isolate 1054 (first entry), E. coli, AAC(6′)-I) | MIC (E. coli; isolate 1054 (second entry), E. coli, AAC(6′)-I) | MIC (E. coli; strain 1054a, E. coli, AAC(6′)-I) | MIC (E. coli; strain 1054b, E. coli, AAC(6′)-I) | MIC (P. aeruginosa; strain 3656, P. aeruginosa, APH(3′)-I + ANT(4′)-II)
32 µg/mL: MIC (E. coli; isolate 97, E. coli, AAC(3)-IV) | MIC (E. coli; [11]) | MIC (E. coli; strain 97, E. coli, AAC(3)-IV) | MIC (E. coli; strain pFCT4392, E. coli, AAC(3)-Ia) | MIC (E. cloacae; [23]) | MIC (E. cloacae; strain 1110, E. cloacae, ANT(2″))
1 µg/mL: MIC (E. coli; [5]) | MIC (E. coli; [6]) | MIC (E. coli; [7]) | MIC (E. coli; [9]) | MIC (E. coli; strain R1436, E. coli, susceptible) | MIC (E. coli; strain R1438, E. coli, susceptible) | MIC (E. coli; strain R2278, E. coli ATCC 35218, susceptible) | MIC (E. coli; strain R2298, E. coli ATCC 25922, susceptible) | MIC (P. aeruginosa; strain 28233, P. aeruginosa, APH(3′)-I + AAC(3)-I)
2 µg/mL: MIC (E. coli; strain RP4, E. coli, APH(3′)-Ib) | MIC (E. cloacae; [24]) | MIC (E. cloacae; [26]) | MIC (E. cloacae; strain HM, E. cloacae, susceptible) | MIC (E. cloacae; strain R1433, E. cloacae, susceptible) | MIC (P. aeruginosa; strain R191, P. aeruginosa, susceptible)
